Biological target: T1, chimeric human H3 receptor (Homo sapiens, UniProt Q9Y5N1)
T1 construct: rat Galpha-i2 (Gnai2, rat); made in house; host or cells: Sf9 insect cells (baculovirus); P2 membranes
Assay: Chimeric human H3 receptor screening GTP binding assay (inhibition of histamine-stimulated GTP-gamma35S binding, Example 8)
Assay type: biochemical
Settings: 1 h; assay described in Example 8; symbol "!" in column headed Ki; read-out: Ki ("!": percent inhibition of agonist-induced GTP-gammaS binding to H3)
Method in brief: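 Sf9 membranes co-expressing chimeric human H3 receptor and heterotrimeric G-protein (35 μg protein) incubated 60 min at room temperature with 4 μM compound, 1 μM histamine and 125 pM GTP-gamma35S in pH 7.4 buffer with 10 μM GDP. Filter-bound radioactivity, nonspecific (10 μM GTP-gammaS) subtracted, reported as % inhibition of histamine signal.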

T1 sequence (Q9Y5N1 with tags, fused parts or gaps): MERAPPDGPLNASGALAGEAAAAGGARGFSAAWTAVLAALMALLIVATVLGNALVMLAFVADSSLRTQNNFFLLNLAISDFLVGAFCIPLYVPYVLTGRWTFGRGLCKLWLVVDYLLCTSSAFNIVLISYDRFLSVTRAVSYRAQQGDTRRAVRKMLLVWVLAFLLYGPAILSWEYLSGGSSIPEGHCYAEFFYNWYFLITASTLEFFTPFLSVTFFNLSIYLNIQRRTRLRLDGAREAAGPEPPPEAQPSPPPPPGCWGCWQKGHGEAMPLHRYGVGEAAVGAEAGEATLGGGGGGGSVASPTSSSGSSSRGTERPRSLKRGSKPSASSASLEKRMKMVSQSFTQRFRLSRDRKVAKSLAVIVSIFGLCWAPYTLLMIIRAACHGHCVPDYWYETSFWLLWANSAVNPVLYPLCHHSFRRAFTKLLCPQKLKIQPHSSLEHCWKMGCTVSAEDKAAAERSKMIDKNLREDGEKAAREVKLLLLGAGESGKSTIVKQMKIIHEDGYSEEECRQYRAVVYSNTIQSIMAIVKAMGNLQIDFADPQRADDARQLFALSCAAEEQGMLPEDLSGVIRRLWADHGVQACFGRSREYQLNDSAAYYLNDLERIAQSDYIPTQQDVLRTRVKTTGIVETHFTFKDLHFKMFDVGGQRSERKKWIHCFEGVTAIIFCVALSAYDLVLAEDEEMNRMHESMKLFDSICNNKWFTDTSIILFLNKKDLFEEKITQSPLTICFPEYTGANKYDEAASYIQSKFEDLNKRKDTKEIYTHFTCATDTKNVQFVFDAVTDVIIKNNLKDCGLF

Inhibition at 4 µM, ≥ 90%:
Cc1cc(C(=O)N2CCc3cnc(N4CCN(C5CCC5)CC4)nc3CC2)c(C(F)(F)F)o1 [Compound 467, 2-(4-cyclobutylpiperazin-1-yl)-7-[5-methyl-2-(trifluoromethyl)-3-furoyl]-6,7,8,9-tetrahydro-5H-pyrimido[4,5-d]azepine]
Cc1cc(C(=O)N2CCc3cnc(N4CCN(C5CCC5)CC4)nc3CC2)oc1C [Compound 468, 2-(4-cyclobutylpiperazin-1-yl)-7-(4,5-dimethyl-2-furoyl)-6,7,8,9-tetrahydro-5H-pyrimido[4,5-d]azepine]
COc1cc(C(=O)N2CCc3cnc(N4CCN(C5CCC5)CC4)nc3CC2)cc(Cl)n1 [Compound 485, 7-(2-chloro-6-methoxyisonicotinoyl)-2-(4-cyclobutylpiperazin-1-yl)-6,7,8,9-tetrahydro-5H-pyrimido[4,5-d]azepine]
COc1ccc(Br)cc1/C=C/C(=O)N1CCc2cnc(N3CCN(C4CCC4)CC3)nc2CC1 [Compound 576, 7-[(2E)-3-(5-bromo-2-methoxyphenyl)prop-2-enoyl]-2-(4-cyclobutylpiperazin-1-yl)-6,7,8,9-tetrahydro-5H-pyrimido[4,5-d]azepine]
Cc1ccc(N)c(C(=O)N2CCc3cnc(N4CCN(C5CCC5)CC4)nc3CC2)c1 [Compound 539, 2-{[2-(4-cyclobutylpiperazin-1-yl)-5,6,8,9-tetrahydro-7H-pyrimido[4,5-d]azepin-7-yl]carbonyl}-4-methylaniline]
Cc1nnsc1C(=O)N1CCc2cnc(N3CCN(C4CCC4)CC3)nc2CC1 [Compound 528, 2-(4-cyclobutylpiperazin-1-yl)-7-[(4-methyl-1,2,3-thiadiazol-5-yl)carbonyl]-6,7,8,9-tetrahydro-5H-pyrimido[4,5-d]azepine]
O=C(/C=C/c1ccccc1C(F)(F)F)N1CCc2cnc(N3CCN(C4CCC4)CC3)nc2CC1 [Compound 580, 2-(4-cyclobutylpiperazin-1-yl)-7-[(2E)-3-[2-(trifluoromethyl)phenyl]prop-2-enoyl]-6,7,8,9-tetrahydro-5H-pyrimido[4,5-d]azepine]
CCOc1ccc(C(=O)N2CCc3cnc(N4CCN(C5CCC5)CC4)nc3CC2)cc1OCC [Compound 383, 2-(4-cyclobutylpiperazin-1-yl)-7-(3,4-diethoxybenzoyl)-6,7,8,9-tetrahydro-5H-pyrimido[4,5-d]azepine]
Cc1ccc(CC(=O)N2CCc3cnc(N4CCN(C5CCC5)CC4)nc3CC2)cc1 [Compound 515, 2-(4-cyclobutylpiperazin-1-yl)-7-[(4-methylphenyl)acetyl]-6,7,8,9-tetrahydro-5H-pyrimido[4,5-d]azepine]
O=C(c1sccc1Cl)N1CCc2cnc(N3CCN(C4CCC4)CC3)nc2CC1 [Compound 446, 7-[(3-chloro-2-thienyl)carbonyl]-2-(4-cyclobutylpiperazin-1-yl)-6,7,8,9-tetrahydro-5H-pyrimido[4,5-d]azepine]
O=C(c1cccnc1Sc1ccc(Cl)cc1)N1CCc2cnc(N3CCN(C4CCC4)CC3)nc2CC1 [Compound 493, 7-({2-[(4-chlorophenyl)thio]pyridin-3-yl}carbonyl)-2-(4-cyclobutylpiperazin-1-yl)-6,7,8,9-tetrahydro-5H-pyrimido[4,5-d]azepine]
CCCOc1ncccc1C(=O)N1CCc2cnc(N3CCN(C4CCC4)CC3)nc2CC1 [Compound 545, 2-(4-cyclobutylpiperazin-1-yl)-7-[(2-propoxypyridin-3-yl)carbonyl]-6,7,8,9-tetrahydro-5H-pyrimido[4,5-d]azepine]

Same assay, conditions: 1 h; assay of Example 8; symbol "!" in column headed Ki; read-out: percent inhibition of agonist-induced GTP-gammaS binding to H3

Inhibition at 4 µM, ≥ 90%:
O=C(c1ccc2c(c1)CCO2)N1CCc2cnc(N3CCN(C4CCC4)CC3)nc2CC1 [Compound 375, 2-(4-cyclobutylpiperazin-1-yl)-7-(2,3-dihydro-1-benzofuran-5-ylcarbonyl)-6,7,8,9-tetrahydro-5H-pyrimido[4,5-d]azepine]
CCOc1cccc(C(=O)N2CCc3cnc(N4CCN(C5CCC5)CC4)nc3CC2)c1 [Compound 367, 2-(4-cyclobutylpiperazin-1-yl)-7-(3-ethoxybenzoyl)-6,7,8,9-tetrahydro-5H-pyrimido[4,5-d]azepine]
CCC(CC)(C(=O)N1CCc2cnc(N3CCN(C4CCC4)CC3)nc2CC1)c1ccccc1 [Compound 350, 2-(4-cyclobutylpiperazin-1-yl)-7-(2-ethyl-2-phenylbutanoyl)-6,7,8,9-tetrahydro-5H-pyrimido[4,5-d]azepine]
O=C(Cc1ccc(Oc2ccccc2)cc1)N1CCc2cnc(N3CCN(C4CCC4)CC3)nc2CC1 [Compound 283, 2-(4-cyclobutylpiperazin-1-yl)-7-[(4-phenoxyphenyl)acetyl]-6,7,8,9-tetrahydro-5H-pyrimido[4,5-d]azepine]
COc1cc(Br)c(CC(=O)N2CCc3cnc(N4CCN(C5CCC5)CC4)nc3CC2)cc1OC [Compound 299, 7-[(2-bromo-4,5-dimethoxyphenyl)acetyl]-2-(4-cyclobutylpiperazin-1-yl)-6,7,8,9-tetrahydro-5H-pyrimido[4,5-d]azepine]
CCn1cncc1CN1CCc2cnc(N3CCN(C4CCC4)CC3)nc2CC1 [Compound 262, 2-(4-cyclobutylpiperazin-1-yl)-7-[(1-ethyl-1H-imidazol-5-yl)methyl]-6,7,8,9-tetrahydro-5H-pyrimido[4,5-d]azepine]
c1nc(N2CCN(C3CCC3)CC2)nc2c1CCN(CC1CCOCC1)CC2 [Compound 272, 2-(4-cyclobutylpiperazin-1-yl)-7-(tetrahydro-2H-pyran-4-ylmethyl)-6,7,8,9-tetrahydro-5H-pyrimido[4,5-d]azepine]
CCCCCCN1CCc2cnc(N3CCN(C4CCC4)CC3)nc2CC1 [Compound 250, 2-(4-cyclobutylpiperazin-1-yl)-7-hexyl-6,7,8,9-tetrahydro-5H-pyrimido[4,5-d]azepine]
COc1cc(CC(=O)N2CCc3cnc(N4CCN(C5CCC5)CC4)nc3CC2)cc(OC)c1OC [Compound 276, 2-(4-cyclobutylpiperazin-1-yl)-7-[(3,4,5-trimethoxyphenyl)acetyl]-6,7,8,9-tetrahydro-5H-pyrimido[4,5-d]azepine]
COc1ccc(C(=O)N2CCc3cnc(N4CCN(C5CCC5)CC4)nc3CC2)cc1OC [Compound 378, 2-(4-cyclobutylpiperazin-1-yl)-7-(3,4-dimethoxybenzoyl)-6,7,8,9-tetrahydro-5H-pyrimido[4,5-d]azepine]
O=C(C(c1ccccc1)C1CCCCC1)N1CCc2cnc(N3CCN(C4CCC4)CC3)nc2CC1 (stereo not drawn) [Compound 355, 2-(4-cyclobutylpiperazin-1-yl)-7-[cyclohexyl(phenyl)acetyl]-6,7,8,9-tetrahydro-5H-pyrimido[4,5-d]azepine]
CC(C)Oc1ccc(C(=O)N2CCc3cnc(N4CCN(C5CCC5)CC4)nc3CC2)cc1 [Compound 380, 2-(4-cyclobutylpiperazin-1-yl)-7-(4-isopropoxybenzoyl)-6,7,8,9-tetrahydro-5H-pyrimido[4,5-d]azepine]

Same assay, conditions: symbol ! in Ki; test compound 4 μM, 1 μM histamine; read-out: percent inhibition of agonist-induced GTP-gammaS binding to H3

Inhibition at 4 µM, ≥ 90%:
Cc1c(F)cccc1CN1CCc2ncnc(N3CCN(C4CCC4)CC3)c2CC1 [Compound 179, 4-(4-cyclobutylpiperazin-1-yl)-7-(3-fluoro-2-methylbenzyl)-6,7,8,9-tetrahydro-5H-pyrimido[4,5-d]azepine]
Cc1ccc(CN2CCc3c(ncnc3N3CCN(C4CCC4)CC3)C2)cc1C [Compound 91, 4-(4-cyclobutylpiperazin-1-yl)-7-(3,4-dimethylbenzyl)-5,6,7,8-tetrahydropyrido[3,4-d]pyrimidine]
CCCCN1CCc2ncnc(N3CCN(C4CCC4)CC3)c2CC1 [Compound 163, 7-butyl-4-(4-cyclobutylpiperazin-1-yl)-6,7,8,9-tetrahydro-5H-pyrimido[4,5-d]azepine]
Cc1cccc(CN2CCc3nc(N4CCN(C5CCC5)CC4)ncc3C2)c1 [Compound 614, 2-(4-cyclobutylpiperazin-1-yl)-6-(3-methylbenzyl)-5,6,7,8-tetrahydropyrido[4,3-d]pyrimidine]
CCN(CC)C1CCN(c2ncnc3c2CCN(Cc2ccccc2)C3)C1 (stereo not drawn) [Compound 15, 1-(7-benzyl-5,6,7,8-tetrahydropyrido[3,4-d]pyrimidin-4-yl)-N,N-diethylpyrrolidin-3-amine]
O=C(c1ccccc1F)N1CCc2c(ncnc2N2CCN(C3CCC3)CC2)C1 [Compound 31, 4-(4-cyclobutylpiperazin-1-yl)-7-(2-fluorobenzoyl)-5,6,7,8-tetrahydropyrido[3,4-d]pyrimidine]
c1ccc2ncc(CN3CCc4c(ncnc4N4CCN(C5CCC5)CC4)C3)cc2c1 [Compound 73, 4-(4-cyclobutylpiperazin-1-yl)-7-(quinolin-3-ylmethyl)-5,6,7,8-tetrahydropyrido[3,4-d]pyrimidine]
CCCN1CCc2ncnc(N3CCN(C4CCC4)CC3)c2CC1 [Compound 162, 4-(4-cyclobutylpiperazin-1-yl)-7-propyl-6,7,8,9-tetrahydro-5H-pyrimido[4,5-d]azepine]
COc1ccc(C(C)N2CCc3c(ncnc3N3CCN(C4CCC4)CC3)C2)c(OC)c1 (stereo not drawn) [Compound 114, 4-(4-cyclobutylpiperazin-1-yl)-7-[1-(2,4-dimethoxyphenyl)ethyl]-5,6,7,8-tetrahydropyrido[3,4-d]pyrimidine]

Source: patent publication US20080051387A1, “TETRAHYDROPYRIDO[3,4-D]PYRIMIDINES AND RELATED ANALOGUES” (priority 2006, published 2008)
